Test system: bacteria in clinical bovine mastitis milk samples
Assay: Combined bacteria identification and antimicrobial susceptibility test (colour of wells, MIC) on clinical bovine mastitis milk samples
Type: cell-based
Description: Clinical bovine mastitis milk samples were collected by a vet clinic in South Island, New Zealand. Samples were stored in the freezer for several months and shipped frozen to the testing facility. In this Example, the term “clinical” means that dairy cows had clinical symptoms of an udder infection e.g. cow behaved unusual, milk clots, swollen udder among other typical symptoms. Testing was executed in microwell plate comprising of 24 wells (3×8 wells).
In addition, 20 ul of clinical mastitis sample was added to each well with a laboratory pipette.
(§1) Abbreviations • 1. 80 ul GC+10 ul Tell: 80 ul Giolitti Cantoni base broth+10 ul Tellurite solution (1%); • 2. 80 ul TSB/Esc/Fer Cit: 80 ul Tryptic soy broth containing 0.25% Esculin and 0.125% Ammonium Ferric Citrate; • 3. 80 ul TSB/Esc/Fer Cit+10 ul Genta: 80 ul Tryptic soy broth containing 0.25% Esculin and 0.125% Ammonium Ferric Citrate+10 ul of Gentamycin solution 10 mg/ml; • 4. 80 ul McC/PR25: 80 ul MacConkey broth (single strength) containing 0.0125% phenol red; and • 5. 80 ul TSB/PR25: 80 ul Tryptic soy broth containing 0.0125% phenol red. Bacteria Identification
Columns A to C and rows 1 and 2 were used for bacteria identification. A1: coagulase positive Staph; A2: Staphylococci; B1: Strep group D; B2: Strep group D; C1: general enrichment media (gram+ and gram-bacteria); C2: coliform bacteria.
Column A3 to A8: serial dilution of benzyl penicillin as potassium. Column B3 to B8: serial dilution of ceftiofur as hydrochloride. Column C3 to C8: serial dilution of cloxacillin as sodium. Antibiotic concentrations are listed as free form ranging between 4 ug/ml to 0.05 ug/ml.
Minimum inhibitory substance concentration (MIC) is here defined as the concentration if a colour change occurs between two wells (one well remains red with drug concentration 1, the other one yellow with drug concentration 2, whereas drug concentration 1 is larger than drug concentration 2) then the MIC is the value of drug concentration 1.
Table 21 indicates the microwell plate configuration #1; Drugs: Benzylpenicillin as potassium; Cloxacillin as sodium; Ceftiofur as hydrochloride; Drug concentration in each well (A3 to C8) is based on 80 μl composition+10 μl drug solution+20 μl clinical mastitis milk sample and equivalent to listed drug concentration in μg/ml; 20 ul of clinical bovine mastitis milk sample was added to each well (A1 to C8).
In addition, each well received one drop of clinical sample from a transfer pipette which was on average about 35 mg. This was determined through weighing the well plate prior and after the addition of clinical mastitis samples. This weight was then divided by 24.
as §1, with “•” for “Abbreviations •”, “red.” for “red. Bacteria Identification”
Columns A to C and rows 1 and 2 were used for bacteria identification. A1: coagulase positive Staph; A2: Staphylococci; B1: Strep Group D; B2: -; C1: general enrichment media (gram+ and gram-); C2: coliform bacteria.
Column A3 to A8: serial dilution of benzyl penicillin as potassium. Drug concentrations given as free form ranging between 4 ug/ml to 0.05 ug/ml. Column B3 to B8: serial dilution of ceftiofur as hydrochloride. Drug concentrations given as free form ranging between 4 ug/ml to 0.05 ug/ml. Column C3 to C8: serial dilution of cloxacillin as sodium. Drug concentrations given as free form ranging between 4 ug/ml to 0.05 ug/ml.

Question: Cc1onc(-c2ccccc2Cl)c1C(=O)N[C@@H]1C(=O)N2[C@@H]1SC(C)(C)[C@@H]2C(=O)O [cloxacillin] was tested. Which “Colour of media in each well” value (ID 5 to 8, T = 0 h (prior incubation, reference), plate configuration #2, drug 1 μg/ml) did it give?
Answer: Its value is “red”.

Question: What about the “Colour of media in each well” value (ID 5 to 8, T = 0 h (prior incubation, reference), plate configuration #2, drug 2 μg/ml) of the same compound?
Answer: The value was “red”.

Question: What about the “Colour of media in each well” value (ID 5 to 8, T = 0 h (prior incubation, reference), plate configuration #2, drug 4 μg/ml) of the same compound?
Answer: The value was “red”.

Question: And the “Colour of media in each well” value (ID 6, T = 23h, 37° C., plate configuration #2, drug 0.05 μg/ml (Table 31))?
Answer: Its value is “yellow”.

Question: And the “Colour of media in each well” value (ID 6, T = 23h, 37° C., plate configuration #2, drug 0.1 μg/ml (Table 31))?
Answer: Its value is “yellow”.

Question: What about the “Colour of media in each well” value (ID 6, T = 23h, 37° C., plate configuration #2, drug 0.5 μg/ml (Table 31)) of the same compound?
Answer: Its value is “yellow”.

Question: What about the “Colour of media in each well” value (ID 6, T = 23h, 37° C., plate configuration #2, drug 1 μg/ml (Table 31)) of the same compound?
Answer: The value was “yellow”.

Question: And the “Colour of media in each well” value (ID 6, T = 23h, 37° C., plate configuration #2, drug 2 μg/ml (Table 31))?
Answer: Its value is “yellow”.

Question: What about the “Colour of media in each well” value (ID 6, T = 23h, 37° C., plate configuration #2, drug 4 μg/ml (Table 31)) of the same compound?
Answer: The value was “yellow”.

Question: And the “Colour of media in each well” value (ID 6, T~7 h, 37° C., plate configuration #2, Table 35, drug 0.05 μg/ml)?
Answer: Its value is “yellow”.

Question: What about the “Colour of media in each well” value (ID 6, T~7 h, 37° C., plate configuration #2, Table 35, drug 0.1 μg/ml) of the same compound?
Answer: Its value is “yellow”.

Question: What about the “Colour of media in each well” value (ID 6, T~7 h, 37° C., plate configuration #2, Table 35, drug 0.5 μg/ml) of the same compound?
Answer: Its value is “yellow”.

Question: And the “Colour of media in each well” value (ID 6, T~7 h, 37° C., plate configuration #2, Table 35, drug 1 μg/ml)?
Answer: The value was “yellow”.

Question: What about the “Colour of media in each well” value (ID 6, T~7 h, 37° C., plate configuration #2, Table 35, drug 2 μg/ml) of the same compound?
Answer: The value was “yellow”.

Question: And the “Colour of media in each well” value (ID 6, T~7 h, 37° C., plate configuration #2, Table 35, drug 4 μg/ml)?
Answer: Its value is “yellow”.

Question: What about the “Colour of media in each well” value (ID 6, T~11 h, 37° C., plate configuration #2, Table 35, drug 0.05 μg/ml) of the same compound?
Answer: The value was “yellow”.

Question: And the “Colour of media in each well” value (ID 6, T~11 h, 37° C., plate configuration #2, Table 35, drug 0.1 μg/ml)?
Answer: Its value is “yellow”.

Question: And the “Colour of media in each well” value (ID 6, T~11 h, 37° C., plate configuration #2, Table 35, drug 0.5 μg/ml)?
Answer: The value was “yellow”.

Question: What about the “Colour of media in each well” value (ID 6, T~11 h, 37° C., plate configuration #2, Table 35, drug 1 μg/ml) of the same compound?
Answer: Its value is “yellow”.

Question: And the “Colour of media in each well” value (ID 6, T~11 h, 37° C., plate configuration #2, Table 35, drug 2 μg/ml)?
Answer: Its value is “yellow”.

Question: What about the “Colour of media in each well” value (ID 6, T~11 h, 37° C., plate configuration #2, Table 35, drug 4 μg/ml) of the same compound?
Answer: The value was “yellow”.

Question: And the “Colour of media in each well” value (ID 6, T~23 h, 37° C., plate configuration #2, Table 35, drug 0.05 μg/ml)?
Answer: The value was “yellow”.

Question: What about the “Colour of media in each well” value (ID 6, T~23 h, 37° C., plate configuration #2, Table 35, drug 0.1 μg/ml) of the same compound?
Answer: Its value is “yellow”.

Question: What about the “Colour of media in each well” value (ID 6, T~23 h, 37° C., plate configuration #2, Table 35, drug 0.5 μg/ml) of the same compound?
Answer: The value was “yellow”.

Question: And the “Colour of media in each well” value (ID 6, T~23 h, 37° C., plate configuration #2, Table 35, drug 1 μg/ml)?
Answer: Its value is “yellow”.

Question: What about the “Colour of media in each well” value (ID 6, T~23 h, 37° C., plate configuration #2, Table 35, drug 2 μg/ml) of the same compound?
Answer: The value was “yellow”.

Question: And the “Colour of media in each well” value (ID 6, T~23 h, 37° C., plate configuration #2, Table 35, drug 4 μg/ml)?
Answer: The value was “yellow”.

Question: And the “Colour of media in each well” value (ID 7, T = 23h, 37° C., plate configuration #2, drug 0.05 μg/ml)?
Answer: The value was “yellow”.

Question: What about the “Colour of media in each well” value (ID 7, T = 23h, 37° C., plate configuration #2, drug 0.1 μg/ml) of the same compound?
Answer: Its value is “yellow”.

Question: What about the “Colour of media in each well” value (ID 7, T = 23h, 37° C., plate configuration #2, drug 0.5 μg/ml) of the same compound?
Answer: The value was “red”.

Question: What about the “Colour of media in each well” value (ID 7, T = 23h, 37° C., plate configuration #2, drug 1 μg/ml) of the same compound?
Answer: Its value is “red”.

Question: What about the “Colour of media in each well” value (ID 7, T = 23h, 37° C., plate configuration #2, drug 2 μg/ml) of the same compound?
Answer: Its value is “red”.

Question: What about the “Colour of media in each well” value (ID 7, T = 23h, 37° C., plate configuration #2, drug 4 μg/ml) of the same compound?
Answer: Its value is “red”.

Question: What about the “Colour of media in each well” value (ID 8, T = 23 h, 37° C., plate configuration #2, drug 0.05 μg/ml) of the same compound?
Answer: The value was “yellow”.

Question: And the “Colour of media in each well” value (ID 8, T = 23 h, 37° C., plate configuration #2, drug 0.1 μg/ml)?
Answer: Its value is “yellow”.

Question: What about the “Colour of media in each well” value (ID 8, T = 23 h, 37° C., plate configuration #2, drug 0.5 μg/ml) of the same compound?
Answer: The value was “red”.

Question: And the “Colour of media in each well” value (ID 8, T = 23 h, 37° C., plate configuration #2, drug 1 μg/ml)?
Answer: Its value is “red”.

Question: What about the “Colour of media in each well” value (ID 8, T = 23 h, 37° C., plate configuration #2, drug 2 μg/ml) of the same compound?
Answer: The value was “red”.

Question: What about the “Colour of media in each well” value (ID 8, T = 23 h, 37° C., plate configuration #2, drug 4 μg/ml) of the same compound?
Answer: Its value is “red”.

Question: And the “Colour of media in each well” value (Table 24, sample ID 2, 22 hours at 37° C., plate configuration #1, row 3 of serial dilution 4 ug/ml to 0.05 ug/ml)?
Answer: The value was “red”.

Question: What about the “Colour of media in each well” value (Table 24, sample ID 2, 22 hours at 37° C., plate configuration #1, row 4 of serial dilution 4 ug/ml to 0.05 ug/ml) of the same compound?
Answer: Its value is “red”.

Question: What about the “Colour of media in each well” value (Table 24, sample ID 2, 22 hours at 37° C., plate configuration #1, row 5 of serial dilution 4 ug/ml to 0.05 ug/ml) of the same compound?
Answer: The value was “red”.

Question: And the “Colour of media in each well” value (Table 24, sample ID 2, 22 hours at 37° C., plate configuration #1, row 6 of serial dilution 4 ug/ml to 0.05 ug/ml)?
Answer: The value was “red”.

Question: And the “Colour of media in each well” value (Table 24, sample ID 2, 22 hours at 37° C., plate configuration #1, row 7 of serial dilution 4 ug/ml to 0.05 ug/ml)?
Answer: Its value is “yellow”.

Question: What about the “Colour of media in each well” value (Table 24, sample ID 2, 22 hours at 37° C., plate configuration #1, row 8 of serial dilution 4 ug/ml to 0.05 ug/ml) of the same compound?
Answer: Its value is “yellow”.

Question: What about the MIC (clinical sample ID 1 (streptococci group D), 37° C. for 22 hours, plate configuration #1) of the same compound?
Answer: Its MIC is 0.5 µg/mL.

Question: What about the MIC (clinical sample ID 2 (streptococci group D, also coagulase positive Staph), 37° C. for 22 hours, plate configuration #1) of the same compound?
Answer: The MIC was 0.5 µg/mL.

Question: And the MIC (clinical sample ID 4 (coagulase positive Staph), 37° C. for 22 hours, plate configuration #1)?
Answer: Its MIC is 0.5 µg/mL.

Question: What about the MIC (clinical sample ID 5 (streptococci group D), 37° C. for 23 hours, plate configuration #2) of the same compound?
Answer: Its MIC is 0.5 µg/mL.

Question: What about the MIC (clinical sample ID 7 (coagulase positive Staph), 37° C. for 23 hours, plate configuration #2) of the same compound?
Answer: The MIC was 0.5 µg/mL.

Question: What about the MIC (clinical sample ID 8 (coagulase negative Staph and Streptococci group D), 37° C. for 23 hours, plate configuration #2) of the same compound?
Answer: The MIC was 0.5 µg/mL.
